Experiments:
human orexin-2 receptor = human orexin-2 receptor (Homo sapiens (Human), UniProt O43614); test: hOX2R FLIPR Ca2+ flux assay; format: cell-based; details: CHO cells expressing human orexin-2 receptor; agonist 70 pM Ala-6,12 orexin-A
Description: In a typical experiment the OX1 and OX2 receptor antagonistic activity of the compounds of the present invention was determined in accordance with the following experimental method. For intracellular calcium measurements, Chinese hamster ovary (CHO) cells expressing the rat orexin-1 receptor or the human orexin-2 receptor, are grown in Iscove's modified DMEM containing 2 mM L-glutamine, […], 1% hypoxanthine-thymidine supplement, 100 U/ml penicillin, 100 μg/ml streptomycin and 10% heat-inactivated fetal calf serum (FCS). The cells are seeded at 20,000 cells/well into Becton-Dickinson black 384-well clear bottom sterile plates coated with poly-D-lysine. All reagents were from GIBCO-Invitrogen Corp. The seeded plates are incubated overnight at 37° C. and 5% CO2. Ala-6,12 human orexin-A as the agonist is prepared as a 1 mM stock solution in 1% bovine serum albumin (BSA) and diluted in assay buffer (HBSS containing 20 mM HEPES, 0.1% BSA and 2.5 mM probenecid, pH7.4) for use in the assay at a final concentration of 70 pM. Test compounds are prepared as 10 mM stock solution in DMSO, then diluted in 384-well plates, first in DMSO, then assay buffer. On the day of the assay, cells are washed 3 times with 100 μl assay buffer and then incubated for 60 min (37° C., 5% CO2) in 60 μl assay buffer containing […] Fluo-4AM ester, 0.02% pluronic acid, and 1% BSA. The dye loading solution is then aspirated and cells are washed 3 times with 100 μl assay buffer. 30 μl of that same buffer is left in each well. Within the Fluorescent Imaging Plate Reader (FLIPR, Molecular Devices), test compounds are added to the plate in a volume of 25 μl, incubated for 5 min and finally 25 μl of agonist is added. Fluorescence is measured for each well at 1 second intervals for 5 minutes and the height of each fluorescence peak is compared to the height of the fluorescence peak induced by 70 pM Ala-6,12 orexin-A with buffer in place of antagonist. For each antagonist, IC50 value (the concentration of compound needed to inhibit 50% of the agonist response) is determined. Alternatively, compound potency can be assessed by a radioligand binding assay (described in Bergman et. al. Bioorg. Med. Chem. Lett. 2008, 18, 1425-1430) in which the inhibition constant (Ki) is determined in membranes prepared from CHO cells expressing either the OX1 or OX2 receptor. The intrinsic orexin receptor antagonist activity of a compound which may be used in the present invention may be determined by these assays.

hOX1R = hOX1R (Homo sapiens, UniProt O43613); test: hOX1R FLIPR Ca2+ flux assay; format: cell-based; details: CHO cells expressing orexin-1 receptor; agonist 70 pM Ala-6,12 orexin-A; read-out: hOX1R FLIPR IC50

Sequence of human orexin-2 receptor (O43614 whole entry): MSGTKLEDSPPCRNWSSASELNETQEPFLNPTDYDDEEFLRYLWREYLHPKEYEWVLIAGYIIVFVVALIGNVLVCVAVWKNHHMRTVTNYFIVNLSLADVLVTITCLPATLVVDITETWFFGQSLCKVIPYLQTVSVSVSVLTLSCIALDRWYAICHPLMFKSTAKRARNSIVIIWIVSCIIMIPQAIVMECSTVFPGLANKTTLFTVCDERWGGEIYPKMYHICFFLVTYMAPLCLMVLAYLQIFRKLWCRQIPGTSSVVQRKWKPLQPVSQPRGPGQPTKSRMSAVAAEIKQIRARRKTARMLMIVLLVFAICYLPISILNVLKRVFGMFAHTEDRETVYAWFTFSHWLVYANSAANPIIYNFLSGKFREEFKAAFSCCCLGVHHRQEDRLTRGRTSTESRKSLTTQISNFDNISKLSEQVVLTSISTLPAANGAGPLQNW

Question: Cc1oc(C[C@H]2CCCCN2C(=O)c2ccccc2C2CCC2)nc1C(C)(C)O [Example 24, (R)-(2-cyclobutylphenyl)(2-((4-(2-hydroxypropan-2-yl)-5-methyloxazol-2-yl)methyl)piperidin-1-yl)methanone] was tested. Which IC50 (human orexin-2 receptor) did it give?
Answer: The IC50 was 0.114 µM.

Question: And the IC50 (hOX1R)?
Answer: The IC50 was 0.184 µM.

Question: Which results are given for Cc1oc(C[C@H]2CCCCN2C(=O)c2ncccc2-c2ccccc2)nc1C(C)(C)O [Example 25, (R)-(2-((4-(2-hydroxypropan-2-yl)-5-methyloxazol-2-yl)methyl)piperidin-1-yl)(3-phenylpyridin-2-yl)methanone]?
Answer: IC50 (human orexin-2 receptor): 0.127 µM; IC50 (hOX1R): 0.24 µM

Question: How did the IC50 (human orexin-2 receptor) turn out when Cc1oc(C[C@H]2CCCCN2C(=O)c2nccnc2-n2cccn2)nc1C(C)(C)O [Example 26, (R)-(3-(1H-pyrazol-1-yl)pyrazin-2-yl)(2-((4-(2-hydroxypropan-2-yl)-5-methyloxazol-2-yl)methyl)piperidin-1-yl)methanone] was run?
Answer: Its IC50 is 0.186 µM.

Question: And the IC50 (hOX1R)?
Answer: The IC50 was 1.41 µM.

Question: What does the source list for Cc1oc(C[C@H]2CCCCN2C(=O)c2ccccc2C2CC2(F)F)nc1C(C)(C)O (stereo partly drawn) [Example 27, (2-(2,2-difluorocyclopropyl)phenyl)((R)-2-((4-(2-hydroxypropan-2-yl)-5-methyloxazol-2-yl)methyl)piperidin-1-yl)methanone]?
Answer: IC50 (human orexin-2 receptor): 0.038 µM; IC50 (hOX1R): 0.473 µM

Question: Cc1oc(C[C@H]2CCCCN2C(=O)c2ccccc2-n2ncnn2)nc1C(C)(C)O [Example 28, (R)-(2-(2H-tetrazol-2-yl)phenyl)(2-((4-(2-hydroxypropan-2-yl)-5-methyloxazol-2-yl)methyl)piperidin-1-yl)methanone] was tested. Which IC50 (human orexin-2 receptor) did it give?
Answer: Its IC50 is 0.152 µM.

Question: And the IC50 (hOX1R)?
Answer: Its IC50 is 0.486 µM.

Question: Which IC50 (human orexin-2 receptor) does the source give for CCCc1ccccc1C(=O)N1CCCC[C@@H]1Cc1nc(C(C)(C)O)c(C)o1 [Example 29, (R)-(2-((4-(2-hydroxypropan-2-yl)-5-methyloxazol-2-yl)methyl)piperidin-1-yl)(2-propylphenyl)methanone] here?
Answer: Its IC50 is 0.106 µM.

Question: And the IC50 (hOX1R)?
Answer: Its IC50 is 0.794 µM.

Question: Which results are given for Cc1ccc(-n2nccn2)c(C(=O)N2CCCC[C@@H]2Cc2nc(C(C)(C)O)c(C)o2)c1 [Example 30, (R)-(2-((4-(2-hydroxypropan-2-yl)-5-methyloxazol-2-yl)methyl)piperidin-1-yl)(5-methyl-2-(2H-1,2,3-triazol-2-yl)phenyl)methanone]?
Answer: IC50 (human orexin-2 receptor): 0.046 µM; IC50 (hOX1R): 0.05 µM

Question: How did the IC50 (human orexin-2 receptor) turn out when Cc1oc(C[C@H]2CCCCN2C(=O)c2ccccc2-c2ncccn2)nc1C(C)(C)O [Example 31, (R)-(2-((4-(2-hydroxypropan-2-yl)-5-methyloxazol-2-yl)methyl)piperidin-1-yl)(2-(pyrimidin-2-yl)phenyl)methanone] was run?
Answer: The IC50 was 0.047 µM.

Question: What about the IC50 (hOX1R) of the same molecule?
Answer: The IC50 was 0.076 µM.

From patent US9920038B2, “Methyl oxazole orexin receptor antagonists” (MERCK SHARP & DOHME CORP., priority 2014, dated 2018)
